Measurements as given in publication PMC5640878, “The GlyR Extracellular β8–β9 Loop – A Functional Determinant of Agonist Potency” (Frontiers in Molecular Neuroscience, 2017).
Read-outs that look alike come from different tables or passages of the source. Each block holds one compound with its values, some of them ahead of it.

What was measured:
GlyRα1^Q177Kβ = GlyRα1^Q177Kβ (UniProt P48167+Q64018, Q205K); assay: whole-cell patch clamp recordings of transfected HEK293 cells
Experimental: (§3) HEK293 cells were transiently transfected using a modified calcium phosphate precipitation method. A mixture of plasmid DNA, CaCl2, 0.1x TE buffer and 2x HBS (50 mM HEPES, 12 mM glucose, 10 mM KCl, 280 mM NaCl, 1.5 mM Na2HPO4) was applied onto the cells. A GlyRα1 to GlyRβ ratio of 1:2 was used for co-expression. For GlyRα1:GlyRβ:GFP co-expression, a ratio of 1:2:1 was transfected. The same amount of DNA was used for GlyRα1 WT and mutants. Media were exchanged after 6–24 h. Immunocytochemical stainings and electrophysiological experiments were always done 24 h after transfection, biotinylation experiments were performed 48 h after transfection.
(§4) The patch clamp technique was used to measure current amplitudes (I) of transfected HEK293 cells. Currents were amplified using an EPC-9 amplifier and the software Patchmaster (HEKA, Lambrecht, Germany). Cells were patched 24 h after transfection in a whole-cell configuration mode. […] All agonist and antagonists were applied using an Octaflow II system (ALA Scientific Instruments, Farmingdale, NY, United States). The extracellular buffer consisted of (in mM): 137 NaCl, 5.4 KCl, 1.8 CaCl2, 1 MgCl2, 5 HEPES, pH adjusted to 7.4 with NaOH. The intracellular buffer contained (in mM): 120 CsCl, 20 N(Et)4Cl, 1 CaCl2, 2 MgCl2, 11 EGTA, 10 HEPES, pH adjusted to 7.2 with CsOH. Recording pipettes with an open resistance of 4–6 MΩ were manufactured from borosilicate capillaries using a P97 horizontal puller (Sutter Instrument, Novato, CA, United States). Cells were held at -60 mV and fast capacitances were in range of 11–13 pF. All experiments were performed at room temperature.
(§5) The following Hill equation was used: I = Imax ^∗ c^nHill/(c^nHill + EC50^nHill). I refers to the current amplitude at the given agonist concentration c, Imax is the current amplitude at a saturating agonist, EC50 refers to the agonist concentration evoking half-maximal current responses and nHill is the Hill coefficient.

GlyRα1^Q177K = settings: shaky mouse; ref Schaefer et al., 2017; cited from earlier work
[1] = test system: GlyR R65 mutated to alanine; settings: ref Grudzinska et al., 2005; cited from earlier work
[2] = test system: GlyR R65 mutated to lysine; settings: ref Grudzinska et al., 2005; cited from earlier work
GlyRα1^Q177Eβ = GlyRα1^Q177Eβ (UniProt P48167+Q64018, Q205E); assay: whole-cell patch clamp recordings of transfected HEK293 cells
Experimental: as §3, §4, §5

GlyRα1^Q177Cβ = GlyRα1^Q177Cβ (UniProt P48167+Q64018, Q205C); assay: as above
Experimental: as §3, §4, §5

GlyRα1^Q177Aβ = GlyRα1^Q177Aβ (UniProt P48167+Q64018, Q205A); assay: as above
Experimental: as §3, §4, §5

GlyRα1^Q177Dβ = GlyRα1^Q177Dβ (UniProt P48167+Q64018, Q205D); assay: as above
GlyRα1β WT = target: T1, GlyRα1β WT (UniProt P48167+Q64018); assay: as above; format: cell-based, murine
T1 construct: expressed in transfected cells; host or cells: HEK293
Experimental: (§1) Media were exchanged after 6–24 h.
(§2) All experiments were performed at room temperature.

GlyRα1^Q177Nβ = GlyRα1^Q177Nβ (UniProt P48167+Q64018, Q205N); assay: as above
Experimental: as §3, §4, §5

GlyRα1^Q177β variants = settings: saturating glycine (1 mM); HEK293, whole-cell
Experimental: as §1, §2

GlyRα1^Q177Rβ = GlyRα1^Q177Rβ (UniProt P48167+Q64018, Q205R); assay: whole-cell patch clamp recordings of transfected HEK293 cells
Experimental: as §3, §4, §5

GlyRα1^Q177Gβ = GlyRα1^Q177Gβ (UniProt P48167+Q64018, Q205G); assay: as above
Experimental: as §3, §4, §5

GlyRα1^Q177Wβ = GlyRα1^Q177Wβ (UniProt P48167+Q64018, Q205W); assay: as above
Experimental: as §3, §4, §5

[3] = 100 μM glycine, HEK293, co-expressed with GlyRβ, whole-cell
[4] = Hill coefficient of glycine concentration-response curve
[5] = read-out: EC50 glycine, HEK293, α1:β 1:2, whole-cell currents, 1–3000 μM glycine
[6] = 100 μM taurine, HEK293, whole-cell
[7] = Hill coefficient of taurine concentration-response curve
[8] = 10 mM taurine, HEK293, whole-cell, mutant probably not completely saturated
[9] = 100 μM β-alanine, HEK293, whole-cell
[10] = Hill coefficient of β-alanine concentration-response curve
[11] = saturating 10 mM β-alanine, HEK293, whole-cell

SMILES: NCC(=O)O [glycine]
increase in glycine EC50 compared to GlyRα1β WT (GlyRα1^Q177Kβ): 5.3 fold | Mean Igly 100 μM ± SEM (GlyRα1^Q177Kβ; [3]): 0.6 ± 0.07^∗∗∗ nA | nH glycine (GlyRα1^Q177Kβ; [4]): 2.2 | EC50 (GlyRα1^Q177Kβ; [5]): 312 ± 7 µM | binding to the mutated receptor compared to GlyRα1 WT (GlyRα1^Q177K): bound with the same efficiency | decrease in glycine EC50 [1]: 1250 fold | decrease in glycine EC50 [2]: 200 fold | increase in glycine EC50 compared to GlyRα1β WT (GlyRα1^Q177Eβ): 1.8 fold | Mean Igly 100 μM ± SEM (GlyRα1^Q177Eβ; [3]): 1.6 ± 0.2 nA | nH glycine (GlyRα1^Q177Eβ; [4]): 2.6 | increase in glycine EC50 compared to GlyRα1β WT (GlyRα1^Q177Cβ): 1.5 fold | Mean Igly 100 μM ± SEM (GlyRα1^Q177Cβ; [3]): 1.8 ± 0.3 nA | nH glycine (GlyRα1^Q177Cβ; [4]): 2.1 | increase in glycine EC50 compared to GlyRα1β WT (GlyRα1^Q177Aβ): 3.6 fold | Mean Igly 100 μM ± SEM (GlyRα1^Q177Aβ; [3]): 0.8 ± 0.3 nA | nH glycine (GlyRα1^Q177Aβ; [4]): 2.0 | EC50 (GlyRα1^Q177Aβ; [5]): 208 ± 22 µM | increase in glycine EC50 compared to GlyRα1β WT (GlyRα1^Q177Dβ): 2.3 fold | Mean Igly 100 μM ± SEM (GlyRα1^Q177Dβ; [3]): 0.9 ± 0.3 nA | nH glycine (GlyRα1^Q177Dβ; [4]): 3.4 | EC50 (GlyRα1^Q177Dβ; [5]): 137 ± 4 µM | Mean Igly 100 μM ± SEM (GlyRα1β WT; [3]): 3.8 ± 0.3 nA | nH glycine (GlyRα1β WT; [4]): 1.9 | EC50 (GlyRα1β WT; [5]): 58 ± 4 µM | increase in glycine EC50 compared to GlyRα1β WT (GlyRα1^Q177Nβ): 1.6 fold | Mean Igly 100 μM ± SEM (GlyRα1^Q177Nβ; [3]): 1.2 ± 0.2 nA | nH glycine (GlyRα1^Q177Nβ; [4]): 3.0 | Imax values in comparison to GlyRα1β WT (GlyRα1^Q177β variants): No significant differences | increase in glycine EC50 compared to GlyRα1β WT (GlyRα1^Q177Rβ): 4 fold | Mean Igly 100 μM ± SEM (GlyRα1^Q177Rβ; [3]): 0.8 ± 0.07 nA | nH glycine (GlyRα1^Q177Rβ; [4]): 2.0 | EC50 (GlyRα1^Q177Rβ; [5]): 231 ± 4 µM | increase in glycine EC50 compared to GlyRα1β WT (GlyRα1^Q177Gβ): 4.5 fold | Mean Igly 100 μM ± SEM (GlyRα1^Q177Gβ; [3]): 0.3 ± 0.08 nA | nH glycine (GlyRα1^Q177Gβ; [4]): 2.5 | EC50 (GlyRα1^Q177Gβ; [5]): 262 ± 13 µM | increase in glycine EC50 compared to GlyRα1β WT (GlyRα1^Q177Wβ): 2.2 fold | Mean Igly 100 μM ± SEM (GlyRα1^Q177Wβ; [3]): 1.8 ± 0.3 nA | nH glycine (GlyRα1^Q177Wβ; [4]): 3.7 | EC50 (GlyRα1^Q177Wβ; [5]): 130 ± 12 µM

SMILES: O=C1C[C@@H]2OCC=C3CN4CC[C@]56c7ccccc7N1[C@H]5[C@H]2[C@H]3C[C@H]46 [strychnine]
binding to the mutated receptor compared to GlyRα1 WT (GlyRα1^Q177K): bound with the same efficiency

agonist-induced inward current at 100 μM taurine (GlyRα1β WT; [6]): 0.13 ± 0.06 nA | absolute current amplitude at 10 mM taurine (efficacy) (GlyRα1β WT; 10 mM taurine, HEK293, whole-cell): 5.7 ± 0.4 nA | EC50 (GlyRα1β WT; HEK293, co-expressed with GlyRβ, whole-cell, 3–10000 μM taurine, read-out: EC50 taurine): 593 ± 18 µM | nH taurine (GlyRα1β WT; [7]): 2.3 | agonist-induced inward current at 100 μM taurine (GlyRα1^Q177Nβ; [6]): 0.02 ± 0.001 nA | absolute current amplitude at 10 mM taurine (efficacy) (GlyRα1^Q177Nβ; [8]): 2.7 ± 0.5 nA | nH taurine (GlyRα1^Q177Nβ; [7]): 1.6 | increase of the EC50 for taurine compared to GlyRα1β WT (GlyRα1^Q177Nβ; human, hek293 cells): 2.1 fold | agonist-induced inward current at 100 μM taurine (GlyRα1^Q177Rβ; [6]): 0 ± 0 nA | absolute current amplitude at 10 mM taurine (efficacy) (GlyRα1^Q177Rβ; [8]): 3.1 ± 0.4 nA | nH taurine (GlyRα1^Q177Rβ; [7]): 1.5 | increase of the EC50 for taurine compared to GlyRα1β WT (GlyRα1^Q177Rβ; human, hek293 cells): 5 fold
SMILES: NCCS(=O)(=O)O [taurine]

agonist-induced inward current at 100 μM β-alanine (GlyRα1β WT; [9]): 1.3 ± 0.3 nA | EC50 (GlyRα1β WT; HEK293, co-expressed with GlyRβ, whole-cell, 3–10000 μM β-alanine, read-out: EC50 β-alanine): 157 ± 7 µM | nH β-alanine (GlyRα1β WT; [10]): 2.6 | absolute current amplitude at 10 mM β-alanine (GlyRα1β WT; [11]): 5.3 ± 2 nA | EC50 (GlyRα1^Q177Nβ): 203 ± 17 µM | agonist-induced inward current at 100 μM β-alanine (GlyRα1^Q177Nβ; [9]): 0.87 ± 0.4 nA | nH β-alanine (GlyRα1^Q177Nβ; [10]): 1.7 | absolute current amplitude at 10 mM β-alanine (GlyRα1^Q177Nβ; [11]): 4.1 ± 0.8 nA | EC50 (GlyRα1^Q177Rβ): 359 ± 19 µM | agonist-induced inward current at 100 μM β-alanine (GlyRα1^Q177Rβ; [9]): 0.2 ± 0.07 nA | nH β-alanine (GlyRα1^Q177Rβ; [10]): 1.9 | absolute current amplitude at 10 mM β-alanine (GlyRα1^Q177Rβ; [11]): 4.5 ± 0.9 nA
SMILES: NCCC(=O)O [β-alanine]
